Measured values as given in ChEMBL document CHEMBL3885881, “DrugMatrix”.

Species: Rattus norvegicus
Test: DrugMatrix - Regimen: Daily Repeat
Assay type: toxicity, organism-based, Sprague-Dawley
Parameters: regimen Daily Repeat, gender Male, age 6-8 weeks
Conditions: in vivo, po, route oral GAVAGE, vehicle .5 % CMC; for ABSOLUTE BASOPHIL / ABSOLUTE EOSINOPHIL / ABSOLUTE LYMPHOCYTE / ABSOLUTE MONOCYTE / ABSOLUTE SEGMENTED NEUTROPHIL / BASOPHIL / EOSINOPHIL / ERYTHROCYTE COUNT / HEMATOCRIT / HEMOGLOBIN / LEUKOCYTE COUNT / LYMPHOCYTE / MEAN CORPUSCULAR HEMOGLOBIN / MEAN CORPUSCULAR HEMOGLOBIN CONCENTRATION / MEAN CORPUSCULAR VOLUME / MONOCYTE / NEUTROPHIL / NUCLEATED RED BLOOD CELLS / PLATELET COUNT: tissue Blood; for ALANINE AMINOTRANSFERASE / ALBUMIN / ALKALINE PHOSPHATASE / ASPARTATE AMINOTRANSFERASE / BLOOD UREA NITROGEN / CARBON DIOXIDE / CHLORIDE / CHOLESTEROL / CREATINE PHOSPHOKINASE / CREATININE / GLUCOSE / LACTATE DEHYDROGENASE / LIPASE / PHOSPHORUS / POTASSIUM / SODIUM / TOTAL BILIRUBIN / TOTAL PROTEIN / URIC ACID: tissue Plasma
[1] = 200 mg/kg, 120 h, dose level Low, time 5 day
[2] = 1500 mg/kg, 72 h, dose level High, time 3 day
[3] = 1500 mg/kg, 120 h, dose level High, time 5 day

CCn1cc(C(=O)O)c(=O)c2cc(F)c(N3CCNCC3)cc21 [NORFLOXACIN]
ABSOLUTE BASOPHIL [1]: 0 CELLS/uL | ABSOLUTE EOSINOPHIL [1]: 0 CELLS/uL | ABSOLUTE LYMPHOCYTE [1]: 13445.67 CELLS/uL | ABSOLUTE MONOCYTE [1]: 43.67 CELLS/uL | ABSOLUTE SEGMENTED NEUTROPHIL [1]: 644 CELLS/uL | BASOPHIL [1]: 0% | EOSINOPHIL [1]: 0% | ERYTHROCYTE COUNT [1]: 5.72 x10E6/uL | HEMATOCRIT [1]: 35.23% | HEMOGLOBIN [1]: 14.43 G/DL | LEUKOCYTE COUNT [1]: 14.13 x10E3/uL | LYMPHOCYTE [1]: 95% | MEAN CORPUSCULAR HEMOGLOBIN [1]: 25.37 pg | MEAN CORPUSCULAR HEMOGLOBIN CONCENTRATION [1]: 41 G/DL | MEAN CORPUSCULAR VOLUME [1]: 61.8 fL | MONOCYTE [1]: 0.33% | NEUTROPHIL [1]: 4.67% | NUCLEATED RED BLOOD CELLS [1]: 0.33 /100WBC | PLATELET COUNT [1]: 1391.67 x10E3/uL | ALANINE AMINOTRANSFERASE [1]: 60.33 u/L | ALBUMIN [1]: 4.43 G/DL | ALKALINE PHOSPHATASE [1]: 370.33 u/L | ASPARTATE AMINOTRANSFERASE [1]: 99 u/L | BLOOD UREA NITROGEN [1]: 15.67 mg/dL | CARBON DIOXIDE [1]: 26.67 mmol/L | CHLORIDE [1]: 102 MEQ/L | CHOLESTEROL [1]: 45.67 mg/dL | CREATINE PHOSPHOKINASE [1]: 920 u/L | CREATININE [1]: 0.25 mg/dL | GLUCOSE [1]: 138.67 mg/dL | LACTATE DEHYDROGENASE [1]: 195.67 u/L | LIPASE [1]: 9.33 u/L | PHOSPHORUS [1]: 12.13 mg/dL | POTASSIUM [1]: 6.16 MEQ/L | SODIUM [1]: 145 MEQ/L | TOTAL BILIRUBIN [1]: 0.2 mg/dL | TOTAL PROTEIN [1]: 6.3 G/DL | URIC ACID [1]: 1.53 mg/dL | ABSOLUTE BASOPHIL [2]: 0 CELLS/uL | ABSOLUTE EOSINOPHIL [2]: 108.33 CELLS/uL | ABSOLUTE LYMPHOCYTE [2]: 13773 CELLS/uL | ABSOLUTE MONOCYTE [2]: 98.33 CELLS/uL | ABSOLUTE SEGMENTED NEUTROPHIL [2]: 1087 CELLS/uL | BASOPHIL [2]: 0% | EOSINOPHIL [2]: 0.67% | ERYTHROCYTE COUNT [2]: 5.77 x10E6/uL | HEMATOCRIT [2]: 37.03% | HEMOGLOBIN [2]: 14.53 G/DL | LEUKOCYTE COUNT [2]: 15.07 x10E3/uL | LYMPHOCYTE [2]: 91.33% | MEAN CORPUSCULAR HEMOGLOBIN [2]: 25.2 pg | MEAN CORPUSCULAR HEMOGLOBIN CONCENTRATION [2]: 39.23 G/DL | MEAN CORPUSCULAR VOLUME [2]: 64.2 fL | MONOCYTE [2]: 0.67% | NEUTROPHIL [2]: 7.33% | NUCLEATED RED BLOOD CELLS [2]: 0 /100WBC | PLATELET COUNT [2]: 1268.67 x10E3/uL | ALANINE AMINOTRANSFERASE [2]: 62.67 u/L | ALBUMIN [2]: 4.2 G/DL | ALKALINE PHOSPHATASE [2]: 453 u/L | ASPARTATE AMINOTRANSFERASE [2]: 76 u/L | BLOOD UREA NITROGEN [2]: 16 mg/dL | CARBON DIOXIDE [2]: 32.33 mmol/L | CHLORIDE [2]: 101.33 MEQ/L | CHOLESTEROL [2]: 46.67 mg/dL | CREATINE PHOSPHOKINASE [2]: 192 u/L | CREATININE [2]: 0.24 mg/dL | GLUCOSE [2]: 128 mg/dL | LACTATE DEHYDROGENASE [2]: 150 u/L | LIPASE [2]: 9.33 u/L | PHOSPHORUS [2]: 11.07 mg/dL | POTASSIUM [2]: 6.55 MEQ/L | SODIUM [2]: 147.2 MEQ/L | TOTAL BILIRUBIN [2]: 0.13 mg/dL | TOTAL PROTEIN [2]: 6 G/DL | URIC ACID [2]: 1.13 mg/dL | ABSOLUTE BASOPHIL [3]: 0 CELLS/uL | ABSOLUTE EOSINOPHIL [3]: 0 CELLS/uL | ABSOLUTE LYMPHOCYTE [3]: 15656 CELLS/uL | ABSOLUTE MONOCYTE [3]: 107.67 CELLS/uL | ABSOLUTE SEGMENTED NEUTROPHIL [3]: 603 CELLS/uL | BASOPHIL [3]: 0% | EOSINOPHIL [3]: 0% | ERYTHROCYTE COUNT [3]: 5.97 x10E6/uL | HEMATOCRIT [3]: 36.5% | HEMOGLOBIN [3]: 14.8 G/DL | LEUKOCYTE COUNT [3]: 16.37 x10E3/uL | LYMPHOCYTE [3]: 95.67% | MEAN CORPUSCULAR HEMOGLOBIN [3]: 24.83 pg | MEAN CORPUSCULAR HEMOGLOBIN CONCENTRATION [3]: 40.53 G/DL | MEAN CORPUSCULAR VOLUME [3]: 61.23 fL | MONOCYTE [3]: 0.67% | NEUTROPHIL [3]: 3.67% | NUCLEATED RED BLOOD CELLS [3]: 0 /100WBC | PLATELET COUNT [3]: 1304.33 x10E3/uL | ALANINE AMINOTRANSFERASE [3]: 82 u/L | ALBUMIN [3]: 4.47 G/DL | ALKALINE PHOSPHATASE [3]: 305.67 u/L | ASPARTATE AMINOTRANSFERASE [3]: 89.67 u/L | BLOOD UREA NITROGEN [3]: 17.33 mg/dL | CARBON DIOXIDE [3]: 22.33 mmol/L | CHLORIDE [3]: 102.33 MEQ/L | CHOLESTEROL [3]: 48 mg/dL | CREATINE PHOSPHOKINASE [3]: 264 u/L | CREATININE [3]: 0.43 mg/dL | GLUCOSE [3]: 145.33 mg/dL | LACTATE DEHYDROGENASE [3]: 298.67 u/L | LIPASE [3]: 12 u/L | PHOSPHORUS [3]: 10.97 mg/dL | POTASSIUM [3]: 6.62 MEQ/L | SODIUM [3]: 145.07 MEQ/L | TOTAL BILIRUBIN [3]: 0.13 mg/dL | TOTAL PROTEIN [3]: 6.77 G/DL | URIC ACID [3]: 2.07 mg/dL
